Earlier results in patent US8298564B2, “Two part antimicrobial boot” (Medtronic, Inc., priority 2006, dated 2012).

Columns and labels:
[1] = not given; remark: listed apart in the source

| degradation with ethylene oxide sterilization (ethylene oxide sterilization) | SMILES | degradation or loss in antimicrobial activity of rifampin-containing devices treated with ethylene oxide (devices containing rifampin treated with ethylene oxide, reported by numerous studies) | degradation on ethylene oxide sterilization, as discovered in U.S. patent application Ser. No. 11/535,762 (ethylene oxide sterilization) | degradation under steam sterilization [1] |
| --- | --- | --- | --- | --- |
| – | CO[C@H]1/C=C/O[C@@]2(C)Oc3c(C)c(O)c4c(O)c(c(/C=N/N5CCN(C)CC5)c(O)c4c3C2=O)NC(=O)/C(C)=C\C=C\[C@H](C)[C@H](O)[C@@H](C)[C@@H](O)[C@@H](C)[C@H](OC(C)=O)[C@@H]1C [rifampin] | no detectable degradation or no loss in antimicrobial activity | substantial degradation | fairly stable |
| does not appear to substantially degrade | CN(C)c1ccc(O)c2c1C[C@H]1C[C@H]3[C@H](N(C)C)C(O)=C(C(N)=O)C(=O)[C@@]3(O)C(O)=C1C2=O [minocycline] | – | – | degrades to unacceptable levels |
